Source: ChEMBL document CHEMBL4507318, “Data for DCP probe BAY-985” (2021)

Columns and labels:
[1] = biological target: Muscarinic acetylcholine receptor M3 (Homo sapiens) (UniProt P20309); details: Compound concentration 10.0 uM
[2] = biological target: Mitogen-activated protein kinase kinase kinase 11 (Homo sapiens) (UniProt Q16584)
[3] = biological target: D(4) dopamine receptor (Homo sapiens) (UniProt P21917); details: Compound concentration 10.0 uM
[4] = biological target: Ribosomal protein S6 kinase alpha-5 (Homo sapiens) (UniProt O75582)
[5] = biological target: NT-3 growth factor receptor (Homo sapiens) (UniProt Q16288)
[6] = biological target: Insulin-like growth factor 1 receptor (Homo sapiens) (UniProt P08069)
[7] = biological target: Calcium/calmodulin-dependent protein kinase kinase 1 (Homo sapiens) (UniProt Q8N5S9)
[8] = biological target: Serine/threonine-protein kinase 35 (Homo sapiens) (UniProt Q8TDR2)
[9] = biological target: RAC-alpha serine/threonine-protein kinase (Homo sapiens) (UniProt P31749)
[10] = biological target: Focal adhesion kinase 1 (Homo sapiens) (UniProt Q05397)
[11] = biological target: Dual specificity tyrosine-phosphorylation-regulated kinase 1B (Homo sapiens) (UniProt Q9Y463)
[12] = biological target: Cyclin-dependent kinase 5 (Homo sapiens) (UniProt Q00535)
[13] = biological target: Serine/threonine-protein kinase MARK1 (Homo sapiens) (UniProt Q9P0L2)
[14] = biological target: Ribosomal protein S6 kinase alpha-3 (Homo sapiens) (UniProt P51812)
[15] = biological target: Serine/threonine-protein kinase 32A (Homo sapiens) (UniProt Q8WU08)
[16] = system: Mast/stem cell growth factor receptor Kit (Homo sapiens), P10721 [L576P]
[17] = biological target: Serine/threonine-protein kinase WNK2 (Homo sapiens) (UniProt Q9Y3S1)
[18] = biological target: Serine/threonine-protein kinase VRK2 (Homo sapiens) (UniProt Q86Y07)
[19] = biological target: Rhodopsin kinase GRK7 (Homo sapiens) (UniProt Q8WTQ7)
[20] = biological target: Angiopoietin-1 receptor (Homo sapiens) (UniProt Q02763)
[21] = biological target: Phosphatidylinositol 3-kinase catalytic subunit type 3 (Homo sapiens) (UniProt Q8NEB9)
[22] = biological target: Serine/threonine-protein kinase tousled-like 2 (Homo sapiens) (UniProt Q86UE8)
[23] = system: Proto-oncogene tyrosine-protein kinase receptor Ret (Homo sapiens), P07949 [V804L]
[24] = biological target: Myosin light chain kinase family member 4 (Homo sapiens) (UniProt Q86YV6)
[25] = biological target: Histamine H2 receptor (Homo sapiens) (UniProt P25021); details: Compound concentration 10.0 uM
[26] = biological target: LIM domain kinase 2 (Homo sapiens) (UniProt P53671)
[27] = system: Proto-oncogene tyrosine-protein kinase receptor Ret (Homo sapiens), P07949 [M918T]
[28] = biological target: Sodium-dependent serotonin transporter (Homo sapiens) (UniProt P31645); details: Compound concentration 10.0 uM
[29] = biological target: Calcium/calmodulin-dependent protein kinase type 1G (Homo sapiens) (UniProt Q96NX5)
[30] = biological target: Tyrosine-protein kinase JAK2 (Homo sapiens) (UniProt O60674)
[31] = system: Epidermal growth factor receptor (Homo sapiens), P00533 [G719C]
[32] = biological target: Ribosomal protein S6 kinase alpha-5 (Homo sapiens) (UniProt O75582); remark: listed apart in the source
[33] = biological target: Ephrin type-B receptor 3 (Homo sapiens) (UniProt P54753)
[34] = biological target: Serine/threonine-protein kinase 4 (Homo sapiens) (UniProt Q13043)
[35] = biological target: Tyrosine-protein kinase Blk (Homo sapiens) (UniProt P51451)
[36] = biological target: Serine/threonine-protein kinase DCLK2 (Homo sapiens) (UniProt Q8N568)
[37] = system: Phosphatidylinositol 4,5-bisphosphate 3-kinase catalytic subunit alpha isoform (Homo sapiens), P42336 [H1047L]
[38] = biological target: Ribosomal protein S6 kinase alpha-2 (Homo sapiens) (UniProt Q15349)
[39] = biological target: 5-hydroxytryptamine receptor 1E (Homo sapiens) (UniProt P28566); details: Compound concentration 10.0 uM
[40] = biological target: Sigma intracellular receptor 2 (Homo sapiens, UniProt Q5BJF2); details: Compound concentration 10.0 uM
[41] = biological target: Serine/threonine-protein kinase TAO2 (Homo sapiens) (UniProt Q9UL54)
[42] = biological target: Tyrosine-protein kinase Lck (Homo sapiens) (UniProt P06239)
[43] = biological target: MAP kinase-interacting serine/threonine-protein kinase 1 (Homo sapiens) (UniProt Q9BUB5)
[44] = biological target: Serine/threonine-protein kinase 25 (Homo sapiens) (UniProt O00506)
[45] = biological target: Cyclin-dependent kinase 7 (Homo sapiens) (UniProt P50613)
[46] = Compound concentration 1000.0 nM
[47] = Compound concentration 100.0 nM

Sequence of Ribosomal protein S6 kinase alpha-5 (Homo sapiens) (O75582 whole entry, looked up): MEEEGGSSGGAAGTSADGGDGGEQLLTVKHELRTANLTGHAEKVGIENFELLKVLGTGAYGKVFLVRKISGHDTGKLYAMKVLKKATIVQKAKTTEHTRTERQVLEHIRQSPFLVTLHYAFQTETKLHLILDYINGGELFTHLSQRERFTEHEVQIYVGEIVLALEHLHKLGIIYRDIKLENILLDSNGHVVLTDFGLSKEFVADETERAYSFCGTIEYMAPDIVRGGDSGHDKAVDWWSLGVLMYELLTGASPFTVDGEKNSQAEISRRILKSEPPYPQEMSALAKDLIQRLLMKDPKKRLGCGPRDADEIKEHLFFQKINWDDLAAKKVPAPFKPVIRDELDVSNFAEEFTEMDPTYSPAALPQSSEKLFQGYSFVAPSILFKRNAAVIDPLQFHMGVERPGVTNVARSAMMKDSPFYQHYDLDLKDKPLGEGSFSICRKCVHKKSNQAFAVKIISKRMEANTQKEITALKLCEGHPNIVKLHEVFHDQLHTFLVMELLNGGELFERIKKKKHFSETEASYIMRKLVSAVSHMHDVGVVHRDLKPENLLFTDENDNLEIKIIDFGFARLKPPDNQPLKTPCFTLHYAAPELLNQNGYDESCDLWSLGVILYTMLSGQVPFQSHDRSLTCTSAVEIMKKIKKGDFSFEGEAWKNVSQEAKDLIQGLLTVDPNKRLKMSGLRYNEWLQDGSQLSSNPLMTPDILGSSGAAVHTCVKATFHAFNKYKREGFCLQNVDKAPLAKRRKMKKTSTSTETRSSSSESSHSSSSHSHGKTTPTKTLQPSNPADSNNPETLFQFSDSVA
Sequence of Mitogen-activated protein kinase kinase kinase 11 (Homo sapiens) (Q16584 whole entry, looked up): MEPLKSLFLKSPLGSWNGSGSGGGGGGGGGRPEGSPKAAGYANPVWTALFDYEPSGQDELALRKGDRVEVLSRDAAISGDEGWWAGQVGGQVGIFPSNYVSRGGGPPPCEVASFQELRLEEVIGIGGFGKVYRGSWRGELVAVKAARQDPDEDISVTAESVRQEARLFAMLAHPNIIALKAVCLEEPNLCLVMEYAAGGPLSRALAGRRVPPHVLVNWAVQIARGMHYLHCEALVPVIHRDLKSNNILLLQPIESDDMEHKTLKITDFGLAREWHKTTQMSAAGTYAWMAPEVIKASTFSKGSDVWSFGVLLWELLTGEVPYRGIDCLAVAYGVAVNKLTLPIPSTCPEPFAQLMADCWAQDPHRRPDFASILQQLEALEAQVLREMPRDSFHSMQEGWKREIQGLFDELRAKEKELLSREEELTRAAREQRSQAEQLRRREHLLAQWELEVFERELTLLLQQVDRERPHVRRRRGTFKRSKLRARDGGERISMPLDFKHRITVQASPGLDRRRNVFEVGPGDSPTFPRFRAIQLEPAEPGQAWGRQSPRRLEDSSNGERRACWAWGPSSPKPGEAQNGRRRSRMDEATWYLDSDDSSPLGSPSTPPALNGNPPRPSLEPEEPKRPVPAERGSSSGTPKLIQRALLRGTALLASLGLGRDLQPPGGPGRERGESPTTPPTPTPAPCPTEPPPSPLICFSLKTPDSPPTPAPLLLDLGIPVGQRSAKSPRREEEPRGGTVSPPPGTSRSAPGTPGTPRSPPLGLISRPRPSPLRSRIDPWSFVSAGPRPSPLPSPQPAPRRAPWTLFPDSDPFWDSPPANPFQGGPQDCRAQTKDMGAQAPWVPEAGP
Sequence of Serine/threonine-protein kinase 32A (Homo sapiens) (Q8WU08 whole entry): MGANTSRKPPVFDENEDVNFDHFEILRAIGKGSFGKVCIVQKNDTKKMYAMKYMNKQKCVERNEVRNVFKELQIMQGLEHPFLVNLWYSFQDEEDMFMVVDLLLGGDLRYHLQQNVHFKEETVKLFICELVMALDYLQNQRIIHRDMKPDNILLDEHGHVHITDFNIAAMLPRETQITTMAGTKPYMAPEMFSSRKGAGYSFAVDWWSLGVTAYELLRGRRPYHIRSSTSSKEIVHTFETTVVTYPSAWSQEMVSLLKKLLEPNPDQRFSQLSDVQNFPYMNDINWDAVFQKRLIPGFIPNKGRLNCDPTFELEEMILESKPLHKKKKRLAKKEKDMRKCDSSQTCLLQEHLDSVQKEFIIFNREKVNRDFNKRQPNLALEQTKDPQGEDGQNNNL
Sequence of LIM domain kinase 2 (Homo sapiens) (P53671 whole entry, looked up, the tested form may be a part): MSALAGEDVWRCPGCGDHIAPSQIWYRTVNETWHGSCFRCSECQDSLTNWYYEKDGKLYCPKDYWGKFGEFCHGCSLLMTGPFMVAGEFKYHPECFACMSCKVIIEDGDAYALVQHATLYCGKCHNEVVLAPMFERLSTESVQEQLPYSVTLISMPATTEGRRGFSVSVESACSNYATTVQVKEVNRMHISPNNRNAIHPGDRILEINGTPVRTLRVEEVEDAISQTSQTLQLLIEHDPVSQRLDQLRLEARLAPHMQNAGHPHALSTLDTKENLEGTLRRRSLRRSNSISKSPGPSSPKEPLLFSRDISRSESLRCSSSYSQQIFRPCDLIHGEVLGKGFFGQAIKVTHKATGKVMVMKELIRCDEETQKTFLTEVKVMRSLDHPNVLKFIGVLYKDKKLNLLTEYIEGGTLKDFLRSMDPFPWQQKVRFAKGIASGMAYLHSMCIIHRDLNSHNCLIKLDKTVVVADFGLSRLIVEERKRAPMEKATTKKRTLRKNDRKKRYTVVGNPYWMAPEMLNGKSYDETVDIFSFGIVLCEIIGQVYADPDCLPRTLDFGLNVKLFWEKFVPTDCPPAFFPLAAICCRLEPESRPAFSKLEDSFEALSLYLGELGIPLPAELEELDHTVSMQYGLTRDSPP
Sequence of Serine/threonine-protein kinase MARK1 (Homo sapiens) (Q9P0L2 whole entry, looked up): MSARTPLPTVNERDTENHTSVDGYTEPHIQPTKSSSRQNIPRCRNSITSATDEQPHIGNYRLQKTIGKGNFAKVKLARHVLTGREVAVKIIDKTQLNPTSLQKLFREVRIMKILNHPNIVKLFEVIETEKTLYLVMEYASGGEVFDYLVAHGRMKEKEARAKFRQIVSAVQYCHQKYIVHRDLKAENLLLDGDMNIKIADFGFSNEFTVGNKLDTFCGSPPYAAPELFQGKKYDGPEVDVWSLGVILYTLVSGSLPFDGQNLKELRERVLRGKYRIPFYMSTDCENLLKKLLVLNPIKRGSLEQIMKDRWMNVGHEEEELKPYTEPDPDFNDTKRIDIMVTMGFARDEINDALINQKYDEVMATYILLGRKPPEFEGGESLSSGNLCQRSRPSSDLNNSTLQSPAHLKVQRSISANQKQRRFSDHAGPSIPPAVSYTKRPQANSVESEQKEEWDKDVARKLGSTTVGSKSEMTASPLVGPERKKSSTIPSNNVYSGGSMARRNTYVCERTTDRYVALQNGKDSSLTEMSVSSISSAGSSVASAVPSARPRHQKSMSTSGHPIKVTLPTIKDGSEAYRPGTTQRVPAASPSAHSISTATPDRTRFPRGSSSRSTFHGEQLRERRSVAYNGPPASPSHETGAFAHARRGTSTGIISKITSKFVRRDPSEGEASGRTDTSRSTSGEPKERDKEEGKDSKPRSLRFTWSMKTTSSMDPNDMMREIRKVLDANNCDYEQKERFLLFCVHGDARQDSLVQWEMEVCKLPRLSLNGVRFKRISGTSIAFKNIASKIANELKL
Sequence of Tyrosine-protein kinase Blk (Homo sapiens) (P51451 2-505 limits assumed): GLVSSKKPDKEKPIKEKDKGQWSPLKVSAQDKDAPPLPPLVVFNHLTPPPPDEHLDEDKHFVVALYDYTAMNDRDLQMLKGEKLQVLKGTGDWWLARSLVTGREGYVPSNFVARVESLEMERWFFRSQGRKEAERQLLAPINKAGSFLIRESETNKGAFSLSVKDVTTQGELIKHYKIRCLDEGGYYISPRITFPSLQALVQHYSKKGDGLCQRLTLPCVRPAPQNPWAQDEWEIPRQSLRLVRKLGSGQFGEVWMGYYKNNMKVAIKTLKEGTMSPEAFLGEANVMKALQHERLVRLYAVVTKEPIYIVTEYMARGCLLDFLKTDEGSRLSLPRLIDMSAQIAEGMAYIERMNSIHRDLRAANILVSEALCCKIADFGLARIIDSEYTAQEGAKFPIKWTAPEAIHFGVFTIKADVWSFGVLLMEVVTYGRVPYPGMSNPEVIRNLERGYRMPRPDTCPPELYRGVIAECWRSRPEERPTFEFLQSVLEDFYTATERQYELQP
Sequence of 5-hydroxytryptamine receptor 1E (Homo sapiens) (P28566 whole entry): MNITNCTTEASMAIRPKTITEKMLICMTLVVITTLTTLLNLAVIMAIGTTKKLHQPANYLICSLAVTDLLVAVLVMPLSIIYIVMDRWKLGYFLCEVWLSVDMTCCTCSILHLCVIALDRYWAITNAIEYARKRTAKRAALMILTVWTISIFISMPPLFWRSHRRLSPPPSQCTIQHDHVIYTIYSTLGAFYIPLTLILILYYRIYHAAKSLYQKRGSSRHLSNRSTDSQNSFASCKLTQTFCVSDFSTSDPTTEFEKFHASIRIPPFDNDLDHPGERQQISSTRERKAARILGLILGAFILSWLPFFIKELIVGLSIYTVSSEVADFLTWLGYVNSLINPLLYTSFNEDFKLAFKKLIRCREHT
Sequence of Cyclin-dependent kinase 7 (Homo sapiens) (P50613 whole entry): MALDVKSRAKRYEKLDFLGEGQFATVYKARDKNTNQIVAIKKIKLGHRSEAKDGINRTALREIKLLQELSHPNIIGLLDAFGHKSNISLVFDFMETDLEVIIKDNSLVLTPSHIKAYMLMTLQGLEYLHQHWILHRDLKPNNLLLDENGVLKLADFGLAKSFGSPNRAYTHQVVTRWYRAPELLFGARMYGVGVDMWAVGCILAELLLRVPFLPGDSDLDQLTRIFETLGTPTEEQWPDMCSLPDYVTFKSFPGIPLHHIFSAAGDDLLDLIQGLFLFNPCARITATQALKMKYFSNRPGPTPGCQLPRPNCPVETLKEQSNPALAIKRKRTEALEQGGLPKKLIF
Sequence of Sigma intracellular receptor 2 (Q5BJF2 whole entry): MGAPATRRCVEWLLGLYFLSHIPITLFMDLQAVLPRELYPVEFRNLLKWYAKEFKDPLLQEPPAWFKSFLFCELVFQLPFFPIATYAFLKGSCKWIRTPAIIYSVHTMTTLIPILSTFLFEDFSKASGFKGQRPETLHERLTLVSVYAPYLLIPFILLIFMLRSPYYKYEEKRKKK

SMILES: CN(C)c1ncnc(-c2ccc3nc(Nc4cc(CN5CCN(C(=O)CC(F)(F)F)CC5)ccn4)[nH]c3c2)c1Cl [BAY-440]
- inhibition [1]: 23.9%
- residual activity [2, 46]: 100%
- inhibition [3]: 7.18%
- residual activity [4, 46]: 100%
- residual activity [5, 46]: 61%
- residual activity [6, 46]: 100%
- residual activity [7, 46]: 100%
- residual activity [8, 46]: 83%
- residual activity [9, 46]: 100%
- residual activity [10, 46]: 100%
- residual activity [11, 46]: 100%
- residual activity [12, 46]: 100%
- residual activity [13, 46]: 100%
- residual activity [14, 46]: 87%
- residual activity [15, 46]: 85%
- residual activity [16, 46]: 87%
- residual activity [17, 46]: 59%
- residual activity [18, 46]: 88%
- residual activity [19, 46]: 90%
- residual activity [20, 46]: 87%
- residual activity [21, 46]: 100%
- residual activity [22, 46]: 100%
- residual activity [23, 46]: 100%
- residual activity [24, 46]: 100%
- inhibition [25]: 32.6%
- residual activity [26, 46]: 100%
- residual activity [27, 46]: 100%
- inhibition [28]: 9.9%
- residual activity [29, 46]: 100%
- residual activity [30, 46]: 44%
- residual activity [31, 46]: 88%
- residual activity [32, 46]: 85%
- residual activity [33, 46]: 100%
- residual activity [34, 46]: 95%
- residual activity [35, 46]: 82%
- residual activity [36, 46]: 100%
- residual activity [37, 46]: 61%
- residual activity [38, 46]: 100%
- inhibition [39]: 29.3%
- inhibition [40]: 68.1%
- residual activity [41, 46]: 80%
- residual activity [42, 46]: 100%
- residual activity [43, 46]: 62%
- residual activity [44, 46]: 100%
- residual activity [45, 46]: 80%

SMILES: C[C@H](c1ccnc(Nc2nc3ccc(-c4cc(N(C)C)ncn4)cc3[nH]2)c1)N1CCN(C(=O)CC(F)(F)F)CC1 [BAY-985]
- inhibition [1]: -8.4%
- residual activity [2, 47]: 92%
- inhibition [3]: 8.17%
- residual activity [4, 47]: 88%
- residual activity [5, 47]: 100%
- residual activity [6, 47]: 98%
- residual activity [7, 47]: 89%
- residual activity [8, 47]: 100%
- residual activity [9, 47]: 100%
- residual activity [10, 47]: 100%
- residual activity [11, 47]: 84%
- residual activity [12, 47]: 86%
- residual activity [13, 47]: 100%
- residual activity [14, 47]: 100%
- residual activity [15, 47]: 100%
- residual activity [16, 47]: 91%
- residual activity [17, 47]: 92%
- residual activity [18, 47]: 94%
- residual activity [19, 47]: 89%
- residual activity [20, 47]: 99%
- residual activity [21, 47]: 100%
- residual activity [22, 47]: 99%
- residual activity [23, 47]: 83%
- residual activity [24, 47]: 100%
- inhibition [25]: 3.55%
- residual activity [26, 47]: 88%
- residual activity [27, 47]: 86%
- inhibition [28]: 21.6%
- residual activity [29, 47]: 76%
- residual activity [30, 47]: 100%
- residual activity [31, 47]: 84%
- residual activity [32, 47]: 61%
- residual activity [33, 47]: 93%
- residual activity [34, 47]: 100%
- residual activity [35, 47]: 79%
- residual activity [36, 47]: 85%
- residual activity [37, 47]: 100%
- residual activity [38, 47]: 89%
- inhibition [39]: 13.6%
- inhibition [40]: 54.1%
- residual activity [41, 47]: 100%
- residual activity [42, 47]: 100%
- residual activity [43, 47]: 92%
- residual activity [44, 47]: 100%
- residual activity [45, 47]: 93%
